The values below come from ChEMBL document CHEMBL3739423, “Synthesis, biological evaluation and mechanism study of a class of benzylideneindanone derivatives as novel anticancer agents” (Medchemcomm, 2015).

Activity calls are given as the source filed them. No cut-off for these calls is given here.

One test concerns A549. Nature of the test: Antiproliferative activity against human A549 cells after 48 hrs by MTT assay. It counts as functional. Conditions: A549, 48 h.
The nature of test [1]: Antiproliferative activity against human PC3 cells after 48 hrs by MTT assay. It counts as functional. The settings on record: PC-3, 48 h.
A short description of test [2]: Antiproliferative activity against human Bel7402 cells after 48 hrs by MTT assay. It counts as functional. Conditions: Bel-7402, 48 h.
The next test concerns MDA-MB-231. The experiment in a line: Antiproliferative activity against human MDA-MB-231 cells after 48 hrs by MTT assay. Type of test: functional. Conditions: MDA-MB-231, 48 h.
Test [3] deals with HeLa. Nature of the test: Antiproliferative activity against human HeLa cells after 48 hrs by MTT assay. It counts as functional.
Another test concerns the target Tubulin. Nature of the test: Inhibition of tubulin polymerization (unknown origin) by fluorescence analysis. Type of test: protein-complex assay, Homo sapiens.
Test [4] deals with HeLa. The experiment in a line: Induction of apoptosis in human HeLa cells assessed as late necrotic cells at 0.05 uM after 48 hrs by annexin-v-PI staining based flow cytometry (reference value: 0.09%). It counts as functional.
The test system of test [5] is HeLa. The experiment in a line: Cell cycle arrest in human HeLa cells assessed as accumulation at G2/M phase at 0.5 microM after 48 hrs by flow cytometry. Type of test: functional.
For test [6], the system named is HeLa. The experiment in a line: Induction of apoptosis in human HeLa cells assessed as late apoptotic cells at 0.5 uM after 48 hrs by annexin-v-PI staining based flow cytometry (reference value: 0.08%). It counts as functional.
Test [7] has as its system HeLa. Nature of the test: Induction of apoptosis in human HeLa cells assessed as viable cells at 0.1 uM after 48 hrs by annexin-v-PI staining based flow cytometry (reference value: 98.4%). It counts as functional. Conditions: read-out: Activity.
Test [8] deals with HeLa. The experiment in a line: Induction of apoptosis in human HeLa cells assessed as late apoptotic cells at 0.1 uM after 48 hrs by annexin-v-PI staining based flow cytometry (reference value: 0.08%). It counts as functional.
Test [9] concerns HeLa. Nature of the test: Cell cycle arrest in human HeLa cells assessed as accumulation at G2/M phase at 0.1 microM after 48 hrs by flow cytometry. Type of test: functional.
The subject of test [10] is HeLa. Nature of the test: Cell cycle arrest in human HeLa cells assessed as accumulation at G2/M phase after 48 hrs by flow cytometry. Type of test: functional, cell-based.
Test [11] relates to HeLa. Nature of the test: Induction of apoptosis in human HeLa cells assessed as early apoptotic cells at 0.5 uM after 48 hrs by annexin-v-PI staining based flow cytometry (reference value: 1.44%). Type of test: functional.
The subject of test [12] is HeLa. Nature of the test: Induction of apoptosis in human HeLa cells assessed as early apoptotic cells at 0.1 uM after 48 hrs by annexin-v-PI staining based flow cytometry (reference value: 1.44%). Type of test: functional.
Test [13] has as its system HeLa. The experiment in a line: Induction of apoptosis in human HeLa cells assessed as late necrotic cells at 0.1 uM after 48 hrs by annexin-v-PI staining based flow cytometry (reference value: 0.09%). It counts as functional.
For test [14], the system named is HeLa. The experiment in a line: Induction of microtubule disruption in human HeLa cells assessed as irregular cytoplasm and chromosomes at 0.5 microM after 48 hrs by hoechst-33342-staining based confocal microscopy analysis. It counts as cell-based.
The test system of test [15] is HeLa. The experiment in a line: Induction of apoptosis in human HeLa cells assessed as late necrotic cells at 0.5 uM after 48 hrs by annexin-v-PI staining based flow cytometry (reference value: 0.09%). Type of test: functional.
The subject of test [16] is HeLa. The experiment in a line: Cell cycle arrest in human HeLa cells assessed as accumulation at G2/M phase at 0.05 microM after 48 hrs by flow cytometry. It counts as functional.
Test [17] relates to HeLa. The experiment in a line: Induction of microtubule disruption in human HeLa cells assessed as microtubule heavily shrunk around centre of cells at 0.5 microM after 48 hrs by hoechst-33342-staining based confocal microscopy analysis. It counts as cell-based.
The test system of test [18] is HeLa. The experiment in a line: Induction of microtubule disruption in human HeLa cells assessed as destabilized microtubule network at 0.05,0.1, 0.5 microM after 48 hrs by hoechst-33342-staining based confocal microscopy analysis. It counts as cell-based.
Test [19] deals with HeLa. The experiment in a line: Induction of apoptosis in human HeLa cells assessed as viable cells at 0.05 uM after 48 hrs by annexin-v-PI staining based flow cytometry (reference value: 98.4%). It counts as functional. The settings on record: read-out: Activity.
For test [20], the system named is HeLa. The experiment in a line: Induction of apoptosis in human HeLa cells after 48 hrs by annexin-v-PI staining based flow cytometry. It counts as functional, cell-based.
The subject of test [21] is HeLa. The experiment in a line: Induction of apoptosis in human HeLa cells assessed as late apoptotic cells at 0.05 uM after 48 hrs by annexin-v-PI staining based flow cytometry (reference value: 0.08%). It counts as functional.
Test [22] deals with HeLa. Nature of the test: Induction of apoptosis in human HeLa cells assessed as viable cells at 0.5 uM after 48 hrs by annexin-v-PI staining based flow cytometry (reference value: 98.4%). Type of test: functional. Conditions: read-out: Activity.
Test [23] deals with HeLa. Nature of the test: Induction of apoptosis in human HeLa cells assessed as early apoptotic cells at 0.05 uM after 48 hrs by annexin-v-PI staining based flow cytometry (reference value: 1.44%). Type of test: functional.

Take `COc1ccc(/C=C2\Cc3c(cc(OC)c(OC)c3OC)C2=O)cc1OC`: the GI50 in the test with A549 was 9.74 µM; in test [1], 7.47 µM; in [2], 10.5 µM; in the test with MDA-MB-231, 9.85 µM; with HeLa [3], 8.56 µM.

On to `COc1ccc(/C=C2\Cc3cc(OC)c(OC)c(OC)c3C2=O)cc1`, for which the GI50 (in the test on A549; in [1]; in test [2]; in the test with MDA-MB-231; with HeLa [3]) was above 10 µM each time.

Regarding `COc1cc2c(cc1OC)C(=O)/C(=C/c1ccc(OC)c(OC)c1OC)C2`, the GI50 (in the test with A549; in test [1]; in test [2]; in the test on MDA-MB-231; in the test with HeLa [3]) was above 10 µM throughout.

For `COc1ccc(/C=C2\Cc3cc(OC)c(OC)c(OC)c3C2=O)cc1[N+](=O)[O-]`, the GI50 (in the test with A549; in test [1]; in test [2]; in the test with MDA-MB-231; in the test with HeLa [3]) was above 10 µM each time.

For the compound `COc1ccc(/C=C2\CCc3c(cc(OC)c(OC)c3OC)C2=O)cc1F`, the GI50 was 15.4 µM with A549; 27.6 µM in [1]; 19.3 µM in [2]; 29.4 µM in the test with MDA-MB-231; 10.2 µM in the test with HeLa [3].

In the case of `COc1cc2c(c(OC)c1OC)C/C(=C\c1cc(OC)c(OC)c(OC)c1OC)C2=O`, the GI50 (with A549; in [1]; in [2]; in the test with MDA-MB-231; with HeLa [3]) was above 10 µM in each case.

Consider `COc1ccc(/C=C2\Cc3c(cc(OC)c(OC)c3OC)C2=O)cc1Br`, for which the IC50 against Tubulin was found to be 9.05 µM. Also, the GI50 with A549 came to 0.41 µM; in [1], 0.389 µM; in [2] it was 0.563 µM; in the test with MDA-MB-231, 0.678 µM; in the test on HeLa [3] it was 0.356 µM.

As for `COc1cc(/C=C2\Cc3c(cc(OC)c(OC)c3OC)C2=O)cc(OC)c1OC`, the GI50 stood at 2.79 µM with A549; 4.99 µM in test [1]; 1.58 µM in test [2]; 5.84 µM in the test on MDA-MB-231; 2.37 µM in the test on HeLa [3].

Regarding `COc1ccc(/C=C2\Cc3c(cc(OC)c(OC)c3OC)C2=O)cc1N`, half-maximal inhibition against Tubulin (IC50) was put at 8.64 µM. Moreover, the GI50 in the test with A549 is 0.212 µM; in test [1], 0.456 µM; in test [2] it was 0.45 µM; in the test with MDA-MB-231, 0.485 µM; with HeLa [3], 0.169 µM.

For the compound `COc1cc2c(cc1O)C(=O)/C(=C/c1cc(OC)c(OC)c(OC)c1)C2`, the GI50 (in the test with A549; in [1]; in [2]; in the test on MDA-MB-231; with HeLa [3]) was above 10 µM throughout.

As for `COc1ccc(/C=C2\Cc3cc(OC)c(OC)c(OC)c3C2=O)cc1O`, the GI50 (in the test on A549; in [1]; in test [2]; in the test on MDA-MB-231; in the test with HeLa [3]) was above 10 µM throughout.

As for `COc1ccc(/C=C2\Cc3c(cc(OC)c(OC)c3OC)C2=O)cc1F`, the IC50 on Tubulin came out at 8.92 µM. For the same compound, the GI50 with A549 was determined as 0.298 µM; in test [1], 0.277 µM; in test [2], 0.491 µM; in the test with MDA-MB-231, 0.521 µM; with HeLa [3] it was 0.258 µM.

Consider `COc1ccc(/C=C2\Cc3c(cc(OC)c(OC)c3OC)C2=O)cc1[N+](=O)[O-]`, for which the GI50 came out at 0.77 µM in the test with A549; 1.56 µM in test [1]; 0.95 µM in [2]; 3.49 µM in the test with MDA-MB-231; 0.79 µM in the test on HeLa [3].

With `COc1cc(/C=C2\Cc3cc(OC)c(OC)c(OC)c3C2=O)cc(OC)c1OC`, the GI50 (in the test with A549; in test [1]; in [2]; in the test with MDA-MB-231; in the test with HeLa [3]) was above 10 µM throughout.

`COc1ccc(/C=C2\CCc3c(cc(OC)c(OC)c3OC)C2=O)cc1`: the GI50 in the test with A549 came out at 18.9 µM; in test [1], 19.6 µM; in test [2], 25.4 µM; with MDA-MB-231 it was 38.7 µM; with HeLa [3], 12.4 µM.

As for `COc1ccc(/C=C2\Cc3cc(OC)c(OC)c(OC)c3C2=O)cc1N`, the GI50 (in the test on A549; in test [1]; in [2]; in the test on MDA-MB-231; in the test on HeLa [3]) was above 10 µM in each case.

In the case of `COc1cc2c(cc1O)C(=O)/C(=C/c1ccc(OC)c(OC)c1OC)C2`, the GI50 with A549 came out at 3.42 µM; in [1], 3.14 µM; in test [2], 9.65 µM; in the test on MDA-MB-231, 2.41 µM; with HeLa [3], 1.59 µM.

For `COc1cc2c(cc1OC)C(=O)/C(=C/c1cc(OC)c(OC)c(OC)c1)C2`, the GI50 (in the test with A549; in test [1]; in test [2]; in the test with MDA-MB-231; with HeLa [3]) was above 10 µM in each case.

Turning to `COc1ccc(/C=C\c2cc(OC)c(OC)c(OC)c2)cc1O` [COMBRETASTATIN A4], the GI50 with A549 was 0.018 µM; in test [1], 0.014 µM; in test [2], 0.012 µM; in the test on MDA-MB-231, 0.021 µM; with HeLa [3] it was 0.0028 µM.

Take `COc1ccc(/C=C2\Cc3c(cc(OC)c(OC)c3OC)C2=O)cc1O`: the Activity with HeLa [4] was 0.38%; in the test with HeLa [5], 46.1%; in the test on HeLa [6], 12.6%; with HeLa [8] it was 2.57%; in the test on HeLa [9], 35.2%; in the test with HeLa [10], “Dose-dependent effect”. For the same compound, the Activity in the test on HeLa [11] was 42.4%; in the test with HeLa [12] it was 19%; in the test with HeLa [13] it was 1.03%; in the test with HeLa [15], 4.4%; with HeLa [16] it was 23.2%; in the test with HeLa [20], “Dose-dependent effect”. Also, the Activity stood at 0.82% in the test with HeLa [21] and 6.98% in the test on HeLa [23]. Further, the viability at 0.1 µM in the test with HeLa [7] turned out to be 77.4%. This compound also had an IC50 at Tubulin of 7.56 µM. The GI50 in the test with A549 was 0.249 µM; in [1] it was 0.213 µM; in [2], 0.307 µM; in the test with MDA-MB-231, 0.57 µM; with HeLa [3], 0.172 µM. Moreover, the result in the test on HeLa [14], in the test on HeLa [17] and with HeLa [18] was Active. In the test on HeLa [19], the viability at 0.05 µM was 91.8%. Besides, the viability at 0.5 µM in the test with HeLa [22] worked out at 40.6%.

On Tubulin, `COc1ccc(/C=C2\Cc3c(cc(OC)c(OC)c3OC)C2=O)cc1` gave an IC50 of 9.62 µM. Also, the GI50 was 0.273 µM in the test on A549; 0.75 µM in test [1]; 0.56 µM in [2]; 0.429 µM with MDA-MB-231; 0.485 µM in the test on HeLa [3].
